Calls of active or inactive are those of the source. No cut-off for these calls is given here.
Tests used:
K562 [1] = assay: Induction of apoptosis in human K562 cells assessed as early apoptotic cells at 50 nM measured after 48 hrs by Annexin V-FITC/PI staining based flow cytometry method (reference value: 1.62%); type: functional
K562 [2] = assay: Inhibition of MAPK signaling pathway in human K562 cells assessed as reduction in MEK level measured after 48 hrs by Western blot analysis; type: cell-based; details: dose 25-100 nM, DDE = dose-dependent effect
[3] = Toxicity in ICR mouse allografted with mouse H22 cells assessed as effect on kidney morphology at 10 to 20 mg/kg, iv administered once a day for 21 days after 7 days of tumor implantation by H and E staining method; type: organism-based; details: in vivo, 504 h, dose 10-20 mg/kg, time 21 day
K562 [4] = assay: Induction of apoptosis in human K562 cells assessed as increase in Bax/Bcl-2 ratio at 25 to 100 nM measured after 48 hrs by Western blot analysis; type: functional, cell-based; details: dose 25-100 nM
K562 [5] = assay: Induction of apoptosis in human K562 cells assessed as early apoptotic cells at 100 nM measured after 48 hrs by Annexin V-FITC/PI staining based flow cytometry method (reference value: 1.62%); type: functional
[6] = Toxicity in ICR mouse allografted with mouse H22 cells assessed as effect on heart morphology at 10 to 20 mg/kg, iv administered once a day for 21 days after 7 days of tumor implantation by H and E staining method; type: organism-based; details: in vivo, 504 h, dose 10-20 mg/kg, time 21 day
K562 [7] = assay: Induction of apoptosis in human K562 cells assessed as late apoptotic cells at 100 nM measured after 48 hrs by Annexin V-FITC/PI staining based flow cytometry method (reference value: 3.53%); type: functional
K562 [8] = assay: Induction of apoptosis in human K562 cells assessed as viable cells at 50 nM measured after 48 hrs by Annexin V-FITC/PI staining based flow cytometry method (reference value: 94.41%); type: functional; details: read-out: Activity
K562 [9] = assay: Induction of apoptosis in human K562 cells assessed as intracellular ROS generation measured after 48 hrs by DCFH-DA staining based flow cytometry method; type: functional, cell-based; details: dose 25-100 nM, DDE = dose-dependent effect
K562 [10] = assay: Induction of apoptosis in human K562 cells assessed as reduction in phosphorylated mTOR level measured after 48 hrs by Western blot analysis; type: functional, cell-based; details: dose 25-100 nM, DDE = dose-dependent effect
H22 [11] = assay: Antitumor activity against mouse H22 cells allografted in ICR mouse assessed as reduction in tumor volume at 20 mg/kg, iv administered once a day for 21 days after 7 days of tumor implantation measured every two days; type: functional, organism-based; details: time 21.0 day
SW480 = assay: Antiproliferative activity against human SW480 cells assessed as reduction in cell viability incubated for 72 hrs by MTT assay; type: functional, cell-based; details: SW480, 72 h
K562 [12] = assay: Induction of apoptosis in human K562 cells assessed as reduction in phosphorylated ERK level measured after 48 hrs by Western blot analysis; type: functional, cell-based; details: dose 25-100 nM, DDE = dose-dependent effect
K562 [13] = assay: Induction of cell cycle arrest in human K562 cells assessed as accumulation of cells at G2 phase at 100 nM measured after 48 hrs by propidium iodide staining-based flow cytometric analysis (reference value: 15.30%); type: functional
[14] = Selectivity index, ratio of IC50 for human L02 cells to IC50 for human SMMC-7721 cells; type: toxicity; details: L02 cells and SMMC-7721 cells, read-out: Ratio IC50
K562 [15] = assay: Induction of cell cycle arrest in human K562 cells assessed as accumulation of cells at G2 phase at 25 nM measured after 48 hrs by propidium iodide staining-based flow cytometric analysis (reference value: 15.30%); type: functional
K562 [16] = assay: Induction of apoptosis in human K562 cells assessed as necrotic cells at 50 nM measured after 48 hrs by Annexin V-FITC/PI staining based flow cytometry method (reference value: 0.44%); type: functional
K562 [17] = assay: Induction of apoptosis in human K562 cells assessed as late apoptotic cells at 25 nM measured after 48 hrs by Annexin V-FITC/PI staining based flow cytometry method (reference value: 3.53%); type: functional
SMMC-7721 = assay: Antiproliferative activity against human […] cells assessed as reduction in cell viability incubated for 72 hrs by MTT assay; type: functional, cell-based; details: SMMC-7721, 72 h
[18] = Toxicity in ICR mouse allografted with mouse H22 cells assessed as effect on lung morphology at 10 to 20 mg/kg, iv administered once a day for 21 days after 7 days of tumor implantation by H and E staining method; type: organism-based; details: in vivo, 504 h, dose 10-20 mg/kg, time 21 day
K562 [19] = assay: Induction of apoptosis in human K562 cells assessed as decrease in Bcl-2 level at 25 to 100 nM measured after 48 hrs by Western blot analysis; type: functional, cell-based; details: dose 25-100 nM
K562 [20] = assay: Induction of apoptosis in human K562 cells assessed as increase in caspase-3 level measured after 48 hrs by Western blot analysis; type: functional, cell-based; details: dose 25-100 nM, DDE = dose-dependent effect
K562 [21] = assay: Induction of cell cycle arrest in human K562 cells assessed as accumulation of cells at S phase at 50 nM measured after 48 hrs by propidium iodide staining-based flow cytometric analysis (reference value: 37.29%); type: functional
K562 [22] = assay: Inhibition of MAPK signaling pathway in human K562 cells assessed as reduction in phosphorylated MEK measured after 48 hrs by Western blot analysis; type: cell-based; details: dose 25-100 nM, DDE = dose-dependent effect
K562 [23] = assay: Induction of apoptosis in human K562 cells assessed as necrotic cells at 100 nM measured after 48 hrs by Annexin V-FITC/PI staining based flow cytometry method (reference value: 0.44%); type: functional
H22 [24] = assay: Antiproliferative activity against mouse H22 cells assessed as reduction in cell viability incubated for 72 hrs by MTT assay; type: functional, cell-based; details: H22, 72 h
K562 [25] = assay: Induction of apoptosis in human K562 cells assessed as intracellular ROS generation at 100 uM measured after 48 hrs by DCFH-DA staining based flow cytometry method (reference value: 0.41%); type: functional
K562 [26] = assay: Induction of apoptosis in human K562 cells assessed as viable cells at 25 nM measured after 48 hrs by Annexin V-FITC/PI staining based flow cytometry method (reference value: 94.41%); type: functional; details: read-out: Activity
K562 [27] = assay: Induction of apoptosis in human K562 cells assessed as viable cells at 100 nM measured after 48 hrs by Annexin V-FITC/PI staining based flow cytometry method (reference value: 94.41%); type: functional; details: read-out: Activity
K562 [28] = assay: Induction of apoptosis in human K562 cells assessed as late apoptotic cells at 50 nM measured after 48 hrs by Annexin V-FITC/PI staining based flow cytometry method (reference value: 3.53%); type: functional
K562 [29] = assay: Inhibition of MAPK signaling pathway in human K562 cells assessed as reduction in Raf level measured after 48 hrs by Western blot analysis; type: cell-based; details: dose 25-100 nM, DDE = dose-dependent effect
K562 [30] = assay: Induction of apoptosis in human K562 cells assessed as increase in caspase-9 level measured after 48 hrs by Western blot analysis; type: functional, cell-based; details: dose 25-100 nM, DDE = dose-dependent effect
K562 [31] = assay: Induction of cell cycle arrest in human K562 cells assessed as downregulation of cyclin B1 measured after 48 hrs by Western blot analysis; type: functional, cell-based; details: dose 25-100 nM, DDE = dose-dependent effect
H22 [32] = assay: Antitumor activity against mouse H22 cells allografted in ICR mouse assessed as reduction in tumor weight at 10 mg/kg, iv administered once a day for 21 days after 7 days of tumor implantation; type: functional; parameters: scale not given: the % may be the effect or the level left; details: time 21 day
K562 [33] = assay: Disruption of mitochondria in human K562 cells assessed as reduction of mitochondrial membrane potential measured after 48 hrs by JC-1 probe based fluorescence based assay; type: functional, cell-based; details: dose 25-100 nM, DDE = dose-dependent effect

In the case of `C=C1C(=O)[C@]23[C@H](OC(=O)/C=C/c4ccncc4)[C@H]1CC[C@H]2[C@]12CCCC(C)(C)[C@H]1[C@H](O)[C@@]3(O)OC2`, the Activity (K562 [1]) is reported as 13.97%, the Activity (K562 [2]) is reported as “Dde” and the Activity [3] is reported as “Non-Toxic”. For the same molecule, the Activity (K562 [4]) was “Active”, the Activity (K562 [5]) was 42.81% and the Activity [6] was “Non-Toxic”. For the same molecule, the Activity (K562 [7]) was 20.92%, the viability at 0.05 µM (K562 [8]) was 66.7% and the Activity (K562 [9]) was “Dde”. The Activity (K562 [10]) was “Dde”, the Activity (H22 [11]) was “Active” and the IC50 (SW480) was 1.03 µM. The Activity (K562 [12]) was “Dde”, the Activity (K562 [13]) was 30.83% and the selectivity ratio [14] was 7.12. For the same molecule, the Activity (K562 [15]) was 22.14%, the Activity (K562 [16]) was 0.07% and the Activity (K562 [17]) was 6.87%. The IC50 (SMMC-7721) was 0.45 µM, the Activity [18] was “Non-Toxic” and the Activity (K562 [19]) was “Active”. The Activity (K562 [20]) was “Dde”, the Activity (K562 [21]) was 36.52% and the Activity (K562 [22]) was “Dde”. The Activity (K562 [23]) was 3.25%, the IC50 (H22 [24]) was 0.23 µM and the Activity (K562 [25]) was 63.43%. The viability at 0.025 µM (K562 [26]) was 82.5%, the viability at 0.1 µM (K562 [27]) was 33% and the Activity (K562 [28]) was 19.26%. For the same molecule, the Activity (K562 [29]) was “Dde”, the Activity (K562 [30]) was “Dde” and the Activity (K562 [31]) was “Dde”. The Activity (H22 [32]) was 74.08% and the Activity (K562 [33]) was “Dde”.
